Consider two molecules from paper PMC4370687, “Functional Characterization of the 1,5-Benzodiazepine Clobazam and Its Major Active Metabolite N-Desmethylclobazam at Human GABAA Receptors Expressed in Xenopus laevis Oocytes” (PLoS ONE, 2015).

Series [1] has as its target T1, human α2β2γ2S GABAAR (Homo sapiens, UniProt P18507+P47869+P47870).
T1 construct: expressed in transfected cells; host or cells: Xenopus laevis oocytes (cRNA injection, α:β2:γ2S 1:1:1; 1:1:5 in the zolpidem comparison)
Put plainly: Potentiation of GABA EC20-evoked currents, TEVC in Xenopus oocytes. In kind it is cell-based. The method, then:
(§1) The cDNAs encoding the human GABAAR subunits were linearized with DraIII (α1, α2, α3, α5 and α6), SmaI (β2 and γ2S) or StuI (δ) and used as templates for in vitro cRNA synthesis using the T7 mMESSAGE mMACHINE High Yield Capped RNA Transcription Kit (Life Technologies Corporation, Carlsbad, CA, USA). Except where otherwise indicated, Xenopus oocytes were injected with 36.8 nL cRNA solution encoding for α1β2γ2S, α2β2γ2S, α3β2γ2S and α5β2γ2S GABAARs in a 1:1:1 α:β2:γ2S ratio (2.7 ng/μL of each subunit), with 46 nL cRNA solution encoding for the α6β2δ GABAAR in a 10:1:10 α6:β2:δ ratio (1:0.1:1 μg/μL), with 18 nL cRNA solution encoding for the α1β2 GABAAR in a 1:1 α1:β2 ratio (0.6:0.6 μg/μL), or with 46 nL cRNA encoding for α6β2 (α6:β2 ratio: 1:0.1 μg/μL). Following injection, the oocytes were incubated at 18°C in modified Barth’s solution [88 mM NaCl, 1 mM KCl, 15 mM HEPES (pH 7.5), 2.4 mM NaHCO3, 0.41 mM CaCl2, 0.82 mM MgSO4, 0.3 mM Ca(NO3)2, 100 U/mL penicillin and 100 μg/mL streptomycin]. Electrophysiological recordings were performed 3 to 6 days after injection.
(§2) Electrophysiological recordings were performed using the TEVC technique on Xenopus oocytes expressing various GABAAR combinations using a protocol adapted from previous studies. […] Cells were impaled with agar-plugged 0.5–1 MΩ electrodes containing 3 M KCl and voltage clamped at −70 mV by a Gene Clamp 500B amplifier (Axon Instruments, Union City, CA, USA) and recorded with pClamp 10 (Windows version, Molecular Devices, LLC, Sunnyvale, CA, USA). The oocytes were continuously perfused with Ringer buffer, and the test compounds were applied in the perfusate. Experiments were performed at room temperature and each data point represents the mean ± S.E.M. value of recordings performed on at least two oocytes from at least two different batches of oocytes. The recorded baseline-to-peak current amplitudes were analyzed using Clampfit 10.1 (Axon Instruments, Union City, CA, USA). […] The presence of δ in cell surface-expressed receptors in α6β2δ-injected oocytes was confirmed on a routinely basis using the δ-GABAAR selective PAM DS2 (1 μM). Furthermore, taking advantage of the differential sensitivity of αβ and αβδ receptors to Zn^2+ as antagonist, 1 μM ZnCl2 was used to verify that a homogenous population of ternary α6β2δ receptor complexes was expressed in these oocytes.
(§3) Two to five minutes of wash time between each application were permitted to overcome receptor desensitization. […] Concentration-response curves for the benzodiazepines were fitted using Equation 1.
To address this aspect, we compared the maximum responses mediated by saturating concentrations (3 μM) of clobazam, N-desmethylclobazam, and clonazepam at the GABAARs with the maximal responses mediated by a saturating concentration of diazepam, a 1,4-benzodiazepine often referred to as a “full benzodiazepine agonist”. […] We also compared the maximum degree of potentiation mediated by clobazam at the α2β2γ2S GABAAR with the maximal responses induced by a saturating concentration of zolpidem. […] In this experiment cRNA for α2β2γ2S was injected in a ratio of 1:1:5 (α2:β2:γ2S) to facilitate the expression of a homogenous population of γ2S-containing complexes.

The target in series [2] is T2, human α3β2γ2S GABAAR (Homo sapiens, UniProt P18507+P34903+P47870).
T2 construct: expressed in transfected cells; host or cells: Xenopus laevis oocytes (cRNA injection, 1:1:1)
T2 sequence (P34903 29-492): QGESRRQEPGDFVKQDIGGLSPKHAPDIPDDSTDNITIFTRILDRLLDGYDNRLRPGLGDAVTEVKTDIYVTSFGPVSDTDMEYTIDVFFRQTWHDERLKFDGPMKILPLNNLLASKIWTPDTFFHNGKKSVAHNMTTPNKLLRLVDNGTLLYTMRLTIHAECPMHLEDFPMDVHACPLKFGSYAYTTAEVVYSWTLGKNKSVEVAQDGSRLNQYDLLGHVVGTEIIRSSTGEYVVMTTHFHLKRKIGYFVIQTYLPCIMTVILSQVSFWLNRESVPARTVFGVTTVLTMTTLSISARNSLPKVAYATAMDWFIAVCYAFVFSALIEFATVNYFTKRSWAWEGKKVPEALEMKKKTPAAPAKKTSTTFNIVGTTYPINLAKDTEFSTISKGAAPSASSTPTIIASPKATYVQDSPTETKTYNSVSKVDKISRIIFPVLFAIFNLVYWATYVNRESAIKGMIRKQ
T2 sequence (P47870 26-474 isoform P47870-1 limits assumed): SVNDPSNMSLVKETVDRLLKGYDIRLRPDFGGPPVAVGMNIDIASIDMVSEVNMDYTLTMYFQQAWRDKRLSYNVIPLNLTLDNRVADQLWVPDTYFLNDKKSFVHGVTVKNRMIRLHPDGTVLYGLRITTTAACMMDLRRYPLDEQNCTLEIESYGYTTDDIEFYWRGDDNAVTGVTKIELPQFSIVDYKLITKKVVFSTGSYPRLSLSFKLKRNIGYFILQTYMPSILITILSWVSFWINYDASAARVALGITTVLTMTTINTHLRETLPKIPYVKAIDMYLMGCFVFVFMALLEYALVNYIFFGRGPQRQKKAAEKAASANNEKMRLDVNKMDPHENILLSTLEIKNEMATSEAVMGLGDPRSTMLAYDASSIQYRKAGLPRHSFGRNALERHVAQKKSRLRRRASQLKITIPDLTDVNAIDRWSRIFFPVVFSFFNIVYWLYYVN
T2 sequence (P18507 40-467 isoform P18507-1 limits assumed): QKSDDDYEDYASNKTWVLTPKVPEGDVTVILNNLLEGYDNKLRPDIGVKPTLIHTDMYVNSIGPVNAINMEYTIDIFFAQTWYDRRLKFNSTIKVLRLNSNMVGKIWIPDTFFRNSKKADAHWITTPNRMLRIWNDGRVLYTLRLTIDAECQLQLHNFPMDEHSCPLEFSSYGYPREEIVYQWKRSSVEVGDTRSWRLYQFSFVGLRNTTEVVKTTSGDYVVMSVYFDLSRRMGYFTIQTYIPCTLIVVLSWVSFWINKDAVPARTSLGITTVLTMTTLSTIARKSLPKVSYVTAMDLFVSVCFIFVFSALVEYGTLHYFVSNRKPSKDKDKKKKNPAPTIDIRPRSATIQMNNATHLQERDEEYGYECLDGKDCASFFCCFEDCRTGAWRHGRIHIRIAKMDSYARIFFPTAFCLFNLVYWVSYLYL
The description is as above. In kind it is cell-based. As to the method:
as §1, §2, §3

Series [3] addresses T3, human α5β2γ2S GABAAR (Homo sapiens, UniProt P18507+P31644+P47870).
T3 construct: expressed in transfected cells; host or cells: Xenopus laevis oocytes (cRNA injection, 1:1:1)
The series is described as above. In kind it is cell-based. As to the method: as §1, §2, §3

Series [4] addresses T4, human α6β2δ GABAAR (Homo sapiens, UniProt P47870+Q16445).
T4 construct: expressed in transfected cells; host or cells: Xenopus laevis oocytes (cRNA injection, α6:β2:δ 10:1:10)
Described as above. The class given is cell-based. The method, then:
as §1, §2, §3

The target of series [5] is T5, human α1β2γ2S GABAAR (Homo sapiens, UniProt P14867+P18507+P47870). Conditions: % of the response evoked by GABA EC20 (EC20 response = 100%).
T5 sequence (P14867 28-456): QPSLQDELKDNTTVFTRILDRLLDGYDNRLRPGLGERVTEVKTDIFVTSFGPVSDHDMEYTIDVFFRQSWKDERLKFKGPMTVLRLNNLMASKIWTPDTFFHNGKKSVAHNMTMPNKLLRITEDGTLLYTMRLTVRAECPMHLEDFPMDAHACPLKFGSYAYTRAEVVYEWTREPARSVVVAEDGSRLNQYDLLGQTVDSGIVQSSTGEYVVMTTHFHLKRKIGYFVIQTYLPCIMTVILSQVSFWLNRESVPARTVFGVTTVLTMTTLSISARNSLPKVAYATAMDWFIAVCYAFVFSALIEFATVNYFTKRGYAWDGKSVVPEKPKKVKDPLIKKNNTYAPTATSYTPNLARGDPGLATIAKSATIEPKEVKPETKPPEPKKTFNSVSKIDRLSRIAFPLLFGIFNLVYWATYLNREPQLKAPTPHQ
T5 sequence (P47870 26-474 isoform P47870-1 limits assumed): as the sequence (P47870 26-474 isoform P47870-1 limits assumed) above
T5 sequence (P18507 40-467 isoform P18507-1 limits assumed): as the sequence (P18507 40-467 isoform P18507-1 limits assumed) above
Experimental: (§6) Electrophysiological recordings were performed using the TEVC technique on Xenopus oocytes expressing various GABAAR combinations using a protocol adapted from previous studies [44, 45]. […] Cells were impaled with agar-plugged 0.5–1 MΩ electrodes containing 3 M KCl and voltage clamped at −70 mV by a Gene Clamp 500B amplifier (Axon Instruments, Union City, CA, USA) and recorded with pClamp 10 (Windows version, Molecular Devices, LLC, Sunnyvale, CA, USA). The oocytes were continuously perfused with Ringer buffer, and the test compounds were applied in the perfusate. Experiments were performed at room temperature and each data point represents the mean ± S.E.M. value of recordings performed on at least two oocytes from at least two different batches of oocytes. The recorded baseline-to-peak current amplitudes were analyzed using Clampfit 10.1 (Axon Instruments, Union City, CA, USA).
Series [6] deals with rat α3β3γ2L GABAAR. Conditions: patch clamp, cited from earlier work. Background: In patch-clamp work, channel activity is measured electrically.
Series [7] deals with human α1,2,3,5β2γ2S GABAARs. Conditions: cited from earlier work.
In series [8] the test system is α1β2γ1 receptors. The following applies: Xenopus oocytes; cited from earlier work.
Series [9] concerns the target T5, human α1β2γ2S GABAAR. The experiment in a line: cell-based.
Experimental: as §6
The conditions of series [10]: humans; cited from earlier work.
Series [11] has as its target T1, human α2β2γ2S GABAAR. The experiment in a line: GABA concentration-response, TEVC electrophysiology in Xenopus oocytes. The class given is cell-based. The following applies: GABA as agonist. As to the method:
as §1
(§4) Electrophysiological recordings were performed using the TEVC technique on Xenopus oocytes expressing various GABAAR combinations using a protocol adapted from previous studies. […] Cells were impaled with agar-plugged 0.5–1 MΩ electrodes containing 3 M KCl and voltage clamped at −70 mV by a Gene Clamp 500B amplifier (Axon Instruments, Union City, CA, USA) and recorded with pClamp 10 (Windows version, Molecular Devices, LLC, Sunnyvale, CA, USA). The oocytes were continuously perfused with Ringer buffer, and the test compounds were applied in the perfusate. Experiments were performed at room temperature and each data point represents the mean ± S.E.M. value of recordings performed on at least two oocytes from at least two different batches of oocytes. The recorded baseline-to-peak current amplitudes were analyzed using Clampfit 10.1 (Axon Instruments, Union City, CA, USA). […]

Series [12] deals with T2, human α3β2γ2S GABAAR. The description is as above. In kind it is cell-based. The following applies: GABA as agonist. The method, then:
as §1, §4

Series [13] has as its target T3, human α5β2γ2S GABAAR. Described as above. The class given is cell-based. Conditions: GABA as agonist. As to the method:
as §1, §4

Series [14] addresses T6, human α6β2 GABAAR (Homo sapiens, UniProt P47870+Q16445).
T6 construct: expressed in transfected cells; host or cells: Xenopus laevis oocytes (cRNA injection)
The series is described as above. In kind it is cell-based. The following applies: GABA as agonist. The method, then: as §1, with “Following injection, the oocytes were incubated at 18°C in modified Barth’s solution [88 mM NaCl, 1 mM KCl, 15 mM HEPES (pH 7.5), 2.4 mM NaHCO3, 0.41 mM CaCl2, 0.82 mM MgSO4, 0.3 mM Ca(NO3)2, 100 U/mL penicillin and 100 μg/mL streptomycin]. Electrophysiological recordings were performed 3 to 6 days after injection.” left out
(§5) Electrophysiological recordings were performed using the TEVC technique on Xenopus oocytes expressing various GABAAR combinations using a protocol adapted from previous studies. […] Cells were impaled with agar-plugged 0.5–1 MΩ electrodes containing 3 M KCl and voltage clamped at −70 mV by a Gene Clamp 500B amplifier (Axon Instruments, Union City, CA, USA) and recorded with pClamp 10 (Windows version, Molecular Devices, LLC, Sunnyvale, CA, USA). […] The recorded baseline-to-peak current amplitudes were analyzed using Clampfit 10.1 (Axon Instruments, Union City, CA, USA). […]

For series [15], the target named is T5, human α1β2γ2S GABAAR. The series is described as above. The class given is cell-based. Also on record: expressed in transfected cells; host or cells: Xenopus laevis oocytes (cRNA injection, α:β2:γ2S 1:1:1). The following applies: GABA as agonist. As to the method:
as §1, with “Following injection, the oocytes were incubated at 18°C in modified Barth’s solution [88 mM NaCl, 1 mM KCl, 15 mM HEPES (pH 7.5), 2.4 mM NaHCO3, 0.41 mM CaCl2, 0.82 mM MgSO4, 0.3 mM Ca(NO3)2, 100 U/mL penicillin and 100 μg/mL streptomycin]. Electrophysiological recordings were performed 3 to 6 days after injection.” left out
as §5

[16] abbreviates: % of the response evoked by GABA EC20 (EC20 response = 100%).

T3 sequence (P31644 32-462): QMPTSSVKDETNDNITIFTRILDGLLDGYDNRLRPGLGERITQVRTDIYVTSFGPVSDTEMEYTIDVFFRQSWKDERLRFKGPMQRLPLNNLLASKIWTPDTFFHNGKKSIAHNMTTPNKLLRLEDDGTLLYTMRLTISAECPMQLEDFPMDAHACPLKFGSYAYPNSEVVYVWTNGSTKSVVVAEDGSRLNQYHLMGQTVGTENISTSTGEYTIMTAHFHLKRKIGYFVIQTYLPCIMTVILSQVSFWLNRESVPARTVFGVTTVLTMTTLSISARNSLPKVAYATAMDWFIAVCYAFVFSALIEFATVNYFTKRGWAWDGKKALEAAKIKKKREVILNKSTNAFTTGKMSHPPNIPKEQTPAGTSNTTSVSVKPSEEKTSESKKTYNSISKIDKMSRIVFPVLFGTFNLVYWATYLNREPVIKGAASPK
T3 sequence (P47870 26-474 isoform P47870-1 limits assumed): as the sequence (P47870 26-474 isoform P47870-1 limits assumed) above
T3 sequence (P18507 40-467 isoform P18507-1 limits assumed): as the sequence (P18507 40-467 isoform P18507-1 limits assumed) above
T1 sequence (P47869 29-451): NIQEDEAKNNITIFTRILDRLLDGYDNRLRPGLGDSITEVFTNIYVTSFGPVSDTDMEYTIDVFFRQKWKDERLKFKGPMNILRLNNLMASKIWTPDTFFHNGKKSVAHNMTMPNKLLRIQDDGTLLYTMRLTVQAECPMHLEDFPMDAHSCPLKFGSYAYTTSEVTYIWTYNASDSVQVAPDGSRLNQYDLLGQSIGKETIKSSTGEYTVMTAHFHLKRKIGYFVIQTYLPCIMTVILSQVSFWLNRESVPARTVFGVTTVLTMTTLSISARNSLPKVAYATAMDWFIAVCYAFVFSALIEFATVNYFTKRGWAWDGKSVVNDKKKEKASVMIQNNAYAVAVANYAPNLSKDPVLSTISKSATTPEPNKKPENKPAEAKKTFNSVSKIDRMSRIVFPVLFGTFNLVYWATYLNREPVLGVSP
T1 sequence (P47870 26-474 isoform P47870-1 limits assumed): as the sequence (P47870 26-474 isoform P47870-1 limits assumed) above
T1 sequence (P18507 40-467 isoform P18507-1 limits assumed): as the sequence (P18507 40-467 isoform P18507-1 limits assumed) above
T4 sequence (Q16445 20-453): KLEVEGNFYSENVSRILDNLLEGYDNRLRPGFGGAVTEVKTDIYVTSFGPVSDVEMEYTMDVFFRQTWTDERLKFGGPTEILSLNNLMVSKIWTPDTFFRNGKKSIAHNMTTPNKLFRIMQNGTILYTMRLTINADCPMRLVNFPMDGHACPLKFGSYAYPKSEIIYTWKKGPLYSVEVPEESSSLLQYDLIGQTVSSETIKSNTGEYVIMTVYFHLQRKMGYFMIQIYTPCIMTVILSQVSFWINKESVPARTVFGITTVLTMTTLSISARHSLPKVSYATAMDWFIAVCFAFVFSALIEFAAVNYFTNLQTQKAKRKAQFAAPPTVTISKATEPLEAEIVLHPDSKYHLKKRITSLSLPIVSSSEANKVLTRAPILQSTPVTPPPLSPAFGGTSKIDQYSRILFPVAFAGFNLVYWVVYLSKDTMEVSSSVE
T4 sequence (P47870 26-474 isoform P47870-1 limits assumed): as the sequence (P47870 26-474 isoform P47870-1 limits assumed) above
T4 sequence (O14764 25-452 partner): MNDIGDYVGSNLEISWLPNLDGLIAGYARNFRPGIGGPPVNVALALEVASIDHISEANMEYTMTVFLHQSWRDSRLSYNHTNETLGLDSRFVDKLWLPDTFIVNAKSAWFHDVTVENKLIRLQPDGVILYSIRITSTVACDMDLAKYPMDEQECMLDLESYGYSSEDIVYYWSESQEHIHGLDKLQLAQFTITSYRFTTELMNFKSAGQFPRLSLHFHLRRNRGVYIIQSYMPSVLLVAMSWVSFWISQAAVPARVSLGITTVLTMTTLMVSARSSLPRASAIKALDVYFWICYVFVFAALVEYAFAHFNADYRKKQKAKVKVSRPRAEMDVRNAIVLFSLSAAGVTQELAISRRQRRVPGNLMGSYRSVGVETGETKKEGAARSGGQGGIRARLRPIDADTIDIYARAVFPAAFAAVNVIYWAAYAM
T6 sequence (Q16445 20-453): as the sequence (Q16445 20-453) above
T6 sequence (P47870 26-474 isoform P47870-1 limits assumed): as the sequence (P47870 26-474 isoform P47870-1 limits assumed) above

`CN1C(=O)CC(=O)N(c2ccccc2)c2cc(Cl)ccc21` [clobazam]: the EC50 (in general, the concentration at which the effect is half-maximal) is 138 nM in [1]; 240 nM in series [2]; 174 nM in [3]; 55000 nM in [4] (EC50, PAM, co-applied with GABA EC20, N-desmethylclobazam value estimated, curve not saturated at 1 mM); 490 nM in series [6] (3 μM GABA (EC10–EC20), HEK-293T cells); 132 nM in [9]. Further, the “Imax ± S.E.M.” value in series [1] (setting [16]) was 261 ± 6.7%; in series [2] (setting [16]) it was 269 ± 0.8%; in series [3] (setting [16]), 216 ± 7.0%; in [4] (setting [16]) it was 528 ± 46%; in [5], 256 ± 12%. Also, the Imax in [6] (% of the responses evoked by GABA EC10–EC20, HEK-293T cells) was 487%. For the same molecule, in series [7], the “fold higher binding affinity at α2β2γ2S compared to α1β2γ2S” value was 2.5 fold. Besides, in series [8], the “potentiation of GABA EC5-EC10-evoked responses” value is on record as “negligible potentiation”. The plasma half-life in [10] is listed as 36 h.

For `NCCCC(=O)O` [GABA, γ-aminobutyric acid], the “Hill slope nH ± S.E.M.” value in series [11] is listed as 1.44 ± 0.07; in series [12], 1.22 ± 0.05; in series [13], 1.19 ± 0.08; in series [14], 0.89 ± 0.09; in [15] it was 1.19 ± 0.05.
